Target: T1, OR11A1 (reference haplotype MA) (Homo sapiens, UniProt Q9GZK7)
T1 construct: Hana3A cells co-transfected with RTP1S and M3-R
T1 sequence (Q9GZK7 1-315): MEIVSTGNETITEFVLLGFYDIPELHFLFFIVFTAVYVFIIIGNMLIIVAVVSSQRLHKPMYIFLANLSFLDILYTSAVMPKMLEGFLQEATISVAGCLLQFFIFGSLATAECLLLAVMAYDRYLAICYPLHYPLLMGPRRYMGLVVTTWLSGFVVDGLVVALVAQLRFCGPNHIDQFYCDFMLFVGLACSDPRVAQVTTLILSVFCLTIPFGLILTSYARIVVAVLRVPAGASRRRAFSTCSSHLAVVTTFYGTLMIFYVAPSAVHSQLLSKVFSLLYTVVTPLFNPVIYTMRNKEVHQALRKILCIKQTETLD
Assay: CRE-luciferase reporter assay in Hana3A cells
Type: cell-based
Conditions: read-out: log(EC50 of reference MA) (converted)

EC50: 0.158 µM
SMILES: CCC1(O)C2(C)CCC(C2)C1(C)C (stereo not shown) [2-ethylfenchol]
